Assay results published in publication PMC12378234, “Enzyme-mediated aminoglycoside resistance without target mimicry” (Communications Chemistry, 2025).
Values after ≈ are worked out from the molar mass of the structure shown. Values joined by “and” are separate entries in the source; they are usually repeats but may differ in a detail not shown here. Equal values may be shown once. Read-outs that look alike come from different tables or passages of the source.

Legend:
[1] = target: AAC(3)-Ia (Acinetobacter baumannii, UniProt D7R512); experiment: Isothermal titration calorimetry; format: binding
Procedure: (§1) To accurately measure protein ligand interactions, the concentration of our proteins of interest was measured spectrophotometrically using the NanoDrop OneC Spectrometer (Thermo Scientific). ITC experiments were performed on a MicroCal iTC 200 (General Electric) at 25 °C with stirring at 750 rpm. Unique buffer solutions were used for each enzyme. AAC(3)-Ia was prepared in 50 mM HEPES, pH 7, and 150 mM NaCl. AAC(3)-IIIa was prepared in 120 mM Tris, pH 7.5, and 150 mM NaCl. AAC(3)-XIa was prepared in 20 mM Tris, pH 7.5, and 150 mM NaCl. The cell contained 550 μM AAC(3)-Ia, 350 μM AAC(3)-IIIa, or 450 μM AAC(3)-XIa. All experiments also contained 5000 μM of coenzyme A trilithium salt in the cell. […] In all ITC experiments, aminoglycosides were prepared in the same buffering solution as the target protein. The ligands were injected 29 times ([…] per injection) with a 180 s interval between injections. Results were analyzed using ORIGIN software version 7E (MicroCal) using the molecular weight of a single protomer of each protein and fitted with a two-set of sites binding model (Supplementary Fig. 5). Data analysis was performed in Microsoft Excel and GraphPad5 software. One-way ANOVA and Tukey’s multiple comparison tests were used to determine the statistical significance of binding affinities.

[2] = target: AAC(3)-XIa (Corynebacterium striatum, UniProt A0ABX7DED9); experiment: Isothermal titration calorimetry; format: binding; details: 25 °C, with coenzyme A, n = 3
Procedure: as §1

[3] = target: T1, AAC(3)-IIIa (Pseudomonas aeruginosa, UniProt P29808); experiment: Isothermal titration calorimetry; format: binding, P. aeruginosa
T1 construct: 6xHis-tag (thrombin-cleavable, pET15b) (N); made in house; host or cells: LOBSTR E. coli
T1 sequence (P29808 whole entry): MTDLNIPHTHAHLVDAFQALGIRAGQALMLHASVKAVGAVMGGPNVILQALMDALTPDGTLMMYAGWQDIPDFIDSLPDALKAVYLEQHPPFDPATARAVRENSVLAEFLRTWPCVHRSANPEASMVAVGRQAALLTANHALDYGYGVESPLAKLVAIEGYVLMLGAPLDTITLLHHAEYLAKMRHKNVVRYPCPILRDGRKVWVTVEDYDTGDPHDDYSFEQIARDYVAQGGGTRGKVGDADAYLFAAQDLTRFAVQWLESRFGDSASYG
Procedure: as §1

[4] = system: empty pUCP18 vector transformed E. coli; experiment: Antibiotic susceptibility testing, endpoint MIC assay; format: cell-based; details: Escherichia coli; empty pUCP18 vector control E. coli; after 20 h of growth; read-out: Endpoint minimum inhibitory concentration (MIC)
Procedure: (§2) Ten milliliters of cultures of LB containing […] ampicillin were inoculated from glycerol stocks of transformed BL21(DE3) E. coli containing genes expressing the proteins of interest in pUCP18 vectors. Experiments were performed using 6xHis-tagged fusion-proteins, as well as untagged wild-type proteins. These cultures were incubated at 37 °C with 200 rpm agitation for 16 h. Turbidity was measured through OD600 with a NanoDrop OneC Spectrometer (Thermo Scientific). From the initial cultures, secondary 10 mL cultures were prepared with OD600 values of 0.1. These cultures were grown until OD600 values of 0.4–0.6 were reached and diluted to bring all cultures to the same OD600. Cultures were induced with 1 mM Isopropyl β-D-1-thiogalactopyranoside and incubated for 4 h. Cultures were diluted to 1 × 10^6 cells mL^−1. Two microliters of culture was added to 198 μL of LB with an appropriate aminoglycoside titration concentration. The formulated 96-well culture plate (Sarstedt) was incubated at 37 °C with 120 rpm orbital agitation. The remainder of the bacterial culture was immediately lysed and processed for Western blotting. OD600 was measured after 20 h using the Molecular Devices Spectra MAX 190 plate reader.

[5] = system: BL21(DE3) E. coli transformed with pUCP18 vector expressing AAC(3)-XIa; experiment: as above; format: cell-based; details: Escherichia coli, 20 h, read-out: Endpoint minimum inhibitory concentration (MIC)
Procedure: as §2

[6] = system: BL21(DE3) E. coli transformed with pUCP18 vector expressing AAC(3)-IIIa; experiment: as above; format: cell-based; details: Escherichia coli, 20 h, read-out: Endpoint minimum inhibitory concentration (MIC)
Procedure: as §2

[7] = system: BL21(DE3) E. coli transformed with pUCP18 vector expressing AAC(3)-Ia; experiment: as above; format: cell-based; details: Escherichia coli, 20 h, read-out: Endpoint minimum inhibitory concentration (MIC)
Procedure: as §2

[8] = AAC(3)-Ia, first set of sites, 25 °C, with coenzyme A, n = 3
[9] = AAC(3)-Ia, second set of sites, 25 °C, with coenzyme A, n = 3
[10] = AAC(3)-XIa, second set of sites
[11] = first set of sites, 25 °C, with coenzyme A, n = 3
[12] = second set of sites, 25 °C, with coenzyme A, n = 3

SMILES: CN[C@@H]1[C@@H](O)[C@@H](O[C@@H]2[C@@H](O)[C@H](O[C@H]3OC(CN)=CC[C@H]3N)[C@@H](N)C[C@H]2N)OC[C@]1(C)O [Sisomicin, sisomicin]
- TΔS [1, 8]: 3.3 ± 0.427 kcal/mol
- ΔG [1, 8]: -6.25 ± 0.596 kcal/mol
- ΔH [1, 8]: -2.95 ± 0.416 kcal/mol
- N (sites) ([1]; AAC(3)-Ia, first set of sites, two-set of sites model, 25 °C, with coenzyme A, n = 3): 0.50 ± 0.06 sites
- N2 (sites) [1, 9]: 0.54 ± 0.01 sites
- TΔS 2 [1, 9]: 3.45 ± 0.795 kcal/mol
- ΔG 2 [1, 9]: -5.66 ± 1.1 kcal/mol
- ΔH 2 [1, 9]: -2.21 ± 0.763 kcal/mol
- Kd ([1]; Kd2, AAC(3)-Ia, second set of sites, 25 °C, with coenzyme A, n = 3): 71.8 ± 7.5 µM
- Kd ([1]; Kd, AAC(3)-Ia, first set of sites, two-set of sites model, 25 °C, with coenzyme A, n = 3): 26 ± 0.6 µM
- Kd ([1]; Kd, AAC(3)-Ia, individual replicates, raw data behind Fig. 6): 26.2 µM and 24.9 µM and 27 µM
- TΔS ([2]; AAC(3)-XIa, first set of sites): -4.51 ± 0.378 kcal/mol
- ΔG ([2]; AAC(3)-XIa, first set of sites): -8.12 ± 0.53 kcal/mol
- ΔH ([2]; AAC(3)-XIa, first set of sites): −12,600 ± 372 cal/mol
- N (sites) ([2]; AAC(3)-XIa, first set of sites, two-set of sites model): 0.51 ± 0.01 sites
- N2 (sites) [2, 10]: 0.36 ± 0.04 sites
- TΔS 2 [2, 10]: 7.295 ± 1.615 kcal/mol
- ΔG 2 [2, 10]: -6.237 ± 2.237 kcal/mol
- ΔH 2 [2, 10]: 1.058 ± 1.548 kcal/mol
- Kd ([2]; Kd2, AAC(3)-XIa, second set of sites): 27.1 ± 4.2 µM
- Kd ([2]; Kd, AAC(3)-XIa, first set of sites, two-set of sites model): 1.1 ± 0.02 µM
- TΔS [3, 11]: -0.411 ± 0.318 kcal/mol
- ΔG [3, 11]: -8.05 ± 0.474 kcal/mol
- ΔH [3, 11]: -8.46 ± 0.351 kcal/mol
- N (sites) ([3]; first set of sites, two-set of sites model, 25 °C, with coenzyme A, n = 3): 0.35 ± 0.03 sites
- Kd ([3]; first set of sites, two-set of sites model, 25 °C, with coenzyme A, n = 3, read-out: Kd): 1.3 ± 0.1 µM
- Kd ([3]; individual replicates, raw data behind Fig. 6, read-out: Kd): 1.42 µM and 1.17 µM and 1.23 µM
- N2 (sites) [3, 12]: 0.56 ± 0.04 sites
- TΔS 2 [3, 12]: 2 ± 0.146 kcal/mol
- ΔG 2 [3, 12]: -7.74 ± 0.204 kcal/mol
- ΔH 2 [3, 12]: -5.74 ± 0.143 kcal/mol
- Kd ([3]; second set of sites, 25 °C, with coenzyme A, n = 3, read-out: Kd2): 2.1 ± 0.2 µM
- MIC [4]: 6 µg/mL (≈ 13.4 µM)
- MIC [5]: 12 µg/mL (≈ 26.8 µM)
- MIC [6]: 12 µg/mL (≈ 26.8 µM)
- MIC [7]: 6 µg/mL (≈ 13.4 µM)
